Like-named read-outs stand apart in the source and are kept apart here.
Key:
USP8 = biological target: T1, USP8 (Homo sapiens, UniProt P40818); assay: USP8 activity assay; format: biochemical; settings: 400 nM Ub-AMC, 630 pM enzyme, pH8.8; pre-incubated 30 minutes at 25° C., 60 minutes at 37° C.; sigmoidal fit; read-out: USP 8
T1 construct: His tag (pFastBac-HT vector) (N); made in house; host or cells: Sf9 or High Five insect cells (baculovirus)
T1 sequence (P40818 1-1118): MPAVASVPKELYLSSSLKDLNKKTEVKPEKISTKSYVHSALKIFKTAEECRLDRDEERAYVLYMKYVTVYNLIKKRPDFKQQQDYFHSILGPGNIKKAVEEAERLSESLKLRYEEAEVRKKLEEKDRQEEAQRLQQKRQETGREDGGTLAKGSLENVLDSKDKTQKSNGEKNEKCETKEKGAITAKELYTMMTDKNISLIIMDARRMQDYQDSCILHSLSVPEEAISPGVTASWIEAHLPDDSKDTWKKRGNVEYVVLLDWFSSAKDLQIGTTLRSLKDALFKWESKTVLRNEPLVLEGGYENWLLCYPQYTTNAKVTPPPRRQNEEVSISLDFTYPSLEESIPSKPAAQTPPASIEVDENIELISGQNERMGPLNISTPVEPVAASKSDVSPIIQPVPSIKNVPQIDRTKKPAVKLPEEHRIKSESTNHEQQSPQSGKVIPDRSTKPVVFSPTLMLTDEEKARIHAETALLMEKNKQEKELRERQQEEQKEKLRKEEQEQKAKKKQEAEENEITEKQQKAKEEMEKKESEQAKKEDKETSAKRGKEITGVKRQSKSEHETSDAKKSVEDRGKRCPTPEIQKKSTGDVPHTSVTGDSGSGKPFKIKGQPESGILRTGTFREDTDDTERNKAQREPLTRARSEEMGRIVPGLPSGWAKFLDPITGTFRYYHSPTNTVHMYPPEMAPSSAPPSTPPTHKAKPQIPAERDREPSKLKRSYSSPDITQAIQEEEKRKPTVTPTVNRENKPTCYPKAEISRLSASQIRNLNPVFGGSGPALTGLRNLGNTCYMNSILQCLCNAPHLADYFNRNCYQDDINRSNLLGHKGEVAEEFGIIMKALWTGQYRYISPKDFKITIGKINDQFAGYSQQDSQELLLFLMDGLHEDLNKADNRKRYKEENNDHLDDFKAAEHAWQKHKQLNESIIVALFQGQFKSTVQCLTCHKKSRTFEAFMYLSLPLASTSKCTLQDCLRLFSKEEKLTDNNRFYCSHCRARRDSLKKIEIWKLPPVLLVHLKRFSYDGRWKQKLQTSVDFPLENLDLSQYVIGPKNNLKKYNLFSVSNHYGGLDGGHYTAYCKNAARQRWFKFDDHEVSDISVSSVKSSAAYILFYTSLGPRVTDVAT
From the text: The cDNA encoding USP8 was obtained by PCR amplification from placenta mRNA. USP8 cDNA was subcloned by PCR into a baculovirus expression vector (pFastBac-HT; Invitrogen). A cDNA encoding a mutated USP8 was generated by mutagenic PCR. The corresponding protein encodes a cysteine to alanine substitution at residue 786. The sequences were ascertained by sequencing of the entire open reading frame. Bacmids encoding […] were generated following DH10bac transposition. The corresponding bacmids were transfected. into insect cells (Sf9). Viruses were recovered from culture supernatant and amplified twice. Insect cells (Sf9 or High Five; Invitrogen) were infected for 72 hours. Total cell lysates were harvested and lyzed in lysis buffer (Tris HCl 50 mM pH 7.6; 0.75 % NP40; 500 mM NaCl; 10% glycerol; 1 mM DTT; 10 mM imidazole; Protease Inhibitor Cocktail; AEBSF 20 μg.ml^−1; Aprotinin 10 μg.ml^−1). Proteins were affinity purified on metal affinity resins (Talon Metal affinity resin; BD Biosciences). Bound materials were extensively washed in wash buffer (50 mM Sodium Phosphate pH 7.0; 300 mM NaCl; 10 mM imidazole; 0.5% Triton X-100; 10% glycerol) and eluted from the resin in 250 mM imidazole-containing wash buffer. Proteins were dialyzed in dialysis buffer (Tris HCl pH 7.6 20 mM; NaCl 200 mM; DTT 1 mM; EDTA 1 mM; 10% Glycerol). Proteins purifications were analyzed on 4-12% NuPAGE (Invitrogen).
USP8 was diluted in USP buffer (50 mM Tris HCl; 0.5 mM EDTA; 5 mM DTT; 0.01% Triton X-100; Bovine Serum Albumin 0.05 mg.ml^−1 pH8.8). Compounds stocks (100 mM) were stored at −20° C. in DMSO.
Reactions were performed as duplicates in Black LJL 96 well plates (HE microplates; Molecular Devices; 20 μl final reaction volume).The substrate concentration for USP8 was 400 nM Ub-AMC (Boston Biochem). The concentrations of the enzyme (USP8) in specificity assays was 630 pM. The concentrations were determined in order to perform specificity assays under initial velocities at fixed substrate concentration. Compounds were pre-incubated with enzymes for 30 minutes at 25° C. Reactions were initiated by addition of substrate to the plates containing the enzymes (+/− compounds) diluted in assay buffer. Reactions were incubated for 60 minutes at 37° C. Reactions were stopped by adding acetic acid (100 mM final). Readings were performed on a Pherastar Fluorescent Reader (BMG). λ Emission 380 nm; λ Excitation=460 nm. Data (mean values +/− standard deviation) were analyzed as % of control (no compound) and plotted as percentage versus the Log of the compound concentration using GraphPad (Prism). Data were fitted to a sigmoidal model (variable slope).

[1] = test system: HCT116 colon cancer cells; assay: HCT116 cell viability and proliferation assay (MTS); format: cell-based; settings: mean of three independent experiments, read-out: HCT116 GI50 D3
In short: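 HCT116 cells, 10^3 per well, treated 24 h after seeding with eight concentrations from 10 μM to 5 nM (0.5% final DMSO), in triplicate, for 72 h. Viability read by MTS reduction (2 h) at 492 nm. GI50 from sigmoidal variable-slope fit; mean of three independent experiments.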

[2] = Homo sapiens, HCT-116, 72 hours incubation

| Molecule | IC50 (USP8) [nM] | GI50 ([1]; 72 hours incubation) [nM] | GI50 [1, 2] [nM] |
| --- | --- | --- | --- |
| 6-(7)-Chloro-1-methyl-2,3,4,10,10a-pentaaza-cyclopenta[b]fluoren-9-one [Example 3/A] | 301 | 361 |  |
| CC(C)c1nnc2nc3c(nn12)-c1ccccc1C3=O [Example 1l/B, 3-Isopropyl-1,2,3a,4,10-pentaaza-cyclopenta[b]fluoren-9-one] | 186 |  | 157 |
| CCc1nnc2nc3c(nn12)-c1c(OC)ccc(OC)c1C3=O [Example 6/B, 3-Ethyl-5,8-dimethoxy-1,2,3a,4,10-pentaaza-cyclopenta[b]fluoren-9-one] | 360 |  | 257 |
| COCCOCCOCc1nnc2nc3c(nn12)C(=O)c1ccccc1-3 [Example 1n/A, 1-[2-(2-Methoxy-ethoxy)-ethoxymethyl]-2,3,4,10,10a-pentaaza-cyclopenta[b]fluoren-9-one] | 347 |  | 1910 |
| COc1cc2c(cc1OC)-c1nn3c(C)nnc3nc1C2=O [Example 5a/B, 6,7-Dimethoxy-3-methyl-1,2,3a,4,10-pentaaza-cyclopenta[b]fluoren-9-one] | 46 |  | 818 |
| CC(C)c1nnc2nc3c(nn12)C(=O)c1ccccc1-3 [Example 1l/A, 1-lsopropyl-2,3,4,10,10a-pentaaza-cyclopenta[b]fluoren-9-one] |  |  | 2250 |

The remaining molecules from weak to strong by IC50 (USP8), led by results:

| IC50 (USP8) [nM] | GI50 ([1]; 72 hours incubation) [nM] | GI50 [1, 2] [nM] | Molecule |
| --- | --- | --- | --- |
| 805 |  |  | CCc1nnc2nc3c(nn12)C(=O)c1cc(OC)c(OC)cc1-3 [Example 5b/A, 1-Ethyl-6,7-dimethoxy-2,3,4,10,10a-pentaaza-cyclopenta[b]fluoren-9-one] |
| 162 |  | 28 | O=C1c2ccccc2-c2nn3c(C(F)(F)F)nnc3nc21 [Example 1m/B, 3-Trifluoromethyl-1,2,3a,4,10-pentaaza-cyclopenta[b]fluoren-9-one] |
| 104 |  | 594 | CCCc1nnc2nc3c(nn12)-c1cc(OC)c(OC)cc1C3=O [Example 5c/B, 6,7-Dimethoxy-3-propyl-1,2,3a,4,10-pentaaza-cyclopenta[b]fluoren-9-one] |
| 65 |  | 1180 | CCc1nnc2nc3c(nn12)-c1cc(OC)c(OC)cc1C3=O [Example 5b/B, 3-Ethyl-6,7-dimethoxy-1,2,3a,4,10-pentaaza-cyclopenta[b]fluoren-9-one] |

— patent publication US20090181972A1, “Novel Inhibitors of Cysteine Proteases, the Pharmaceutical Compositions Thereof and their Therapeutic Applications” (priority 2005, published 2009)
